Results: US20240299322A1, “TREATING CANCERS WITH COMBINATIONS OF PARP INHIBITOR AND ACYLFULVENES” (LANTERN PHARMA INC., priority 2022, published 2024)
Read-outs that look alike come from different tables or passages of the source.

Tests used:
Type in all cases: cell-based
[1] = test system: BRCA2 mutant ovarian tumor cell line PEO1; experiment: Cell sensitivity analysis on PEO1 cell line, single and combination treatment, Isobole plot
Experimental: Cell sensitivity analysis was performed to evaluate the synergistic effect of LP-184 and Olaparib on PEO1 cell line, which is an established BRCA2 mutant ovarian tumor cell line. Cells were seeded onto 96-well plate and were continuously exposed to drug treatment for 8.5 days. IC50 data were obtained from Olaparib, LP-184 single treatment and combination treatment.
Cell sensitivity analysis was performed to evaluate the synergistic effect of LP-184 and Talazoparib on PEO1 cell line. Experiments were done as described above. […] Furthermore, the synergistic effect of Talazoparib and LP-184 co-treatment was analyzed by using an Isobole plot (FIG. 4D).

[2] = test system: OVCAR3 (Ovarian); experiment: Bliss synergy score (MacSynergy II), LP-100 and PARP inhibitor, OVCAR3; conditions: combination with LP-100, score >10 indicates synergy
Experimental: (§1) This program allows the three-dimensional examination of drug interactions of all data points generated from the checkerboard combination of two inhibitors with Bliss-Independence model (not shown). Confidence bounds are determined from replicate data. […] The volumes of synergy or antagonism can be determined and graphically depicted in three dimensions and represent the relative quantity of synergism or antagonism per change in the two drug concentrations. Synergy and antagonism volumes are based on the Bliss independence model, which assumes that both compounds act independently on different targets. A set of predicted fractional responses faAB under the Bliss independence model is calculated as […] faB with faA and faB representing the fraction of possible responses, e.g. percent (%) inhibition, of compounds A and B at amounts dA and dB, respectively, and describes the percent inhibition of a combination of compounds A and B at amount (dA+dB).

[3] = test system: 22RV1 (Prostate); experiment: Bliss synergy score (MacSynergy II), LP-100 and PARP inhibitor, 22RV1; conditions: combination with LP-100, score >10 indicates synergy
Experimental: as §1

[4] = Homo sapiens, PEO1, 204 h, PEO1, 8.5 days, Olaparib and LP-184 together, FIG. 3C, read-out: IC50 of Olaparib and LP-184 co-treatment (concentration of each drug giving 50% cell growth inhibition together)
[5] = Homo sapiens, PEO1, PEO1, Example 4, FIGS. 4A, 4B, read-out: IC50 single treatment
[6] = Homo sapiens, PEO1, PEO1, Talazoparib and LP-184 together, FIG. 4C, read-out: IC50 of Talazoparib and LP-184 co-treatment (concentration of each drug giving 50% cell growth inhibition together)
[7] = PEO1, Olaparib and LP-184 co-treatment, Example 3
[8] = PEO1, Talazoparib and LP-184 co-treatment, Example 4

IC50 [1, 4] [nM]	IC50 [1, 5] [nM]	IC50 [1, 6] [nM]	Structure (SMILES)	fold less in co-treatment compared to single drug treatment [1, 7] [fold]	fold less in co-treatment compared to single drug treatment [1, 8] [fold]	Bliss Synergy Score between LP-100 and PARP inhibitor [2]	also measured
13.9	87.4	7.2	CC1=C(CN(O)C(N)=O)C2=C(C)C3(CC3)[C@@](C)(O)C(=O)C2=C1 [LP-184, (−)-hydroxyureamethyl acylfulvene]	7.77	12.14		IC50 ([1]; Homo sapiens, PEO1, 204 h, PEO1, Example 4, FIGS. 4A, 4B, read-out: IC50 single treatment): 87.4 nM; IC50 ([1]; Homo sapiens, PEO1, 204 h, PEO1, continuous exposure 8.5 days, Example 3, FIGS. 3A, 3B, read-out: IC50 single treatment): 108 nM
			NC(=O)c1cccc2cn(-c3ccc([C@@H]4CCCNC4)cc3)nc12 [Niraparib]			10.34	
279		3.6	O=C(c1cc(Cc2n[nH]c(=O)c3ccccc23)ccc1F)N1CCN(C(=O)C2CC2)CC1 [Olaparib, 4-[(3-[(4-cyclopropylcarbonyl)piperazin-4-yl]carbonyl)-4-fluorophenyl]met-hyl(2H)-phthalazin-1-one]	4.48		12.19	IC50 ([1]; PEO1, continuous exposure 8.5 days, Example 3, FIGS. 3A, 3B, read-out: IC50 single treatment): 1250 nM
			CNCc1ccc(-c2[nH]c3cc(F)cc4c3c2CCNC4=O)cc1 [Rucaparib, 8-Fluoro-2-{4-[(methylamino)methyl]phenyl}-1,3,4,5-tetrahydro-6H-azepino[-5,4,3-cd]indol-6-one]			14.11	Bliss Synergy Score between LP-100 and PARP inhibitor [3]: 18.57
	13.1		Cn1ncnc1[C@H]1c2n[nH]c(=O)c3cc(F)cc(c23)N[C@@H]1c1ccc(F)cc1 [Talazoparib, (8S,9R)-5-fluoro-8-(4-fluorophenyl)-9-(1-methyl-1H-1,2,4-triazol-5-yl)-8,-9-dihydro-2H-pyrido[4,3,2de]phthalazin-3 (7H)-one]		3.64		
